Reference: ChEMBL document CHEMBL1145727, “Improvement of biological activity and proteolytic stability of peptides by coupling with a cyclic peptide” (Bioorg Med Chem Lett, 2003)
Bridge positions count the residues as written; N and C are the ends. Peptide text beside a SMILES is read from it.

Experiments:
[1] = target: Protein farnesyltransferase (Homo sapiens, UniProt P49354+P49356); test: Inhibition of Farnesyltransferase by Scintillation Proximity Assay; type: protein-complex assay
[2] = target: Protein farnesyltransferase (Bos taurus, UniProt P29702+P49355); test: In vitro inhibition of farnesylation of v-Ki-Ras by bovine farnesyl transferase; type: protein-complex assay
[3] = target: Integrin alpha-5/beta-1 (Homo sapiens, UniProt P05556+P08648); test: Inhibition of mouse melanoma B16-F10 cell adhesion to fibronectin; type: functional, cell-based
[4] = target: T1, Integrin alpha-IIb/beta-3 (Homo sapiens) (UniProt P05106+P08514); test: Inhibition of platelet aggregation at 0.3 mM in platelet-rich plasma (PRP) of citreated rabbit heart blood; type: functional; details: Oryctolagus cuniculus, target entry is the homologue from another species
[5] = target: T1, Integrin alpha-IIb/beta-3 (Homo sapiens); test: Inhibition of platelet aggregation at 0.1 mM in platelet-rich plasma (PRP) of citreated rabbit heart blood; type: functional; details: Oryctolagus cuniculus, target entry is the homologue from another species
[6] = target: T1, Integrin alpha-IIb/beta-3 (Homo sapiens); test: Inhibition of platelet aggregation at 1 mM in platelet-rich plasma (PRP) of citreated rabbit heart blood; type: functional; details: Oryctolagus cuniculus, target entry is the homologue from another species

Integrin alpha-5/beta-1, sequence (P05556 21-798 limits assumed): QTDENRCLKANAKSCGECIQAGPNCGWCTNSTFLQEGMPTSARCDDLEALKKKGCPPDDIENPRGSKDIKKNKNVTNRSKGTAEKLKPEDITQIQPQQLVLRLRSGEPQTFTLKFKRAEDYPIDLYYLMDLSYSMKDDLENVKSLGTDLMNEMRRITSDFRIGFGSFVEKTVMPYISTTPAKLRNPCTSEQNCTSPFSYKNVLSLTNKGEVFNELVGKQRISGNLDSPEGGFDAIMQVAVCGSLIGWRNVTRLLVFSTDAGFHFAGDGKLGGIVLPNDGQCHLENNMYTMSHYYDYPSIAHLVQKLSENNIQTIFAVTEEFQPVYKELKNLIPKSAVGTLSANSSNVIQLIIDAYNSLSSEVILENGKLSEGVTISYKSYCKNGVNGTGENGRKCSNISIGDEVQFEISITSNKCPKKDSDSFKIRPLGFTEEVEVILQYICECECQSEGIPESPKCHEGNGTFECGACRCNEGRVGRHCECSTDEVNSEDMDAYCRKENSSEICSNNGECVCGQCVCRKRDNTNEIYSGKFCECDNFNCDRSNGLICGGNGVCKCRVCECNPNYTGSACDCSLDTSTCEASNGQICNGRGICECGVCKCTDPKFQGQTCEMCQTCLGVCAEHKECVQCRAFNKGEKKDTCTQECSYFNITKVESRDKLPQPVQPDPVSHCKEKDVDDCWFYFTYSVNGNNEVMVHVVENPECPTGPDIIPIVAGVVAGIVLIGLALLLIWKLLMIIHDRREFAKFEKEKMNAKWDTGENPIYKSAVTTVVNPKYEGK
Integrin alpha-5/beta-1, sequence (P08648 42-894 limits assumed): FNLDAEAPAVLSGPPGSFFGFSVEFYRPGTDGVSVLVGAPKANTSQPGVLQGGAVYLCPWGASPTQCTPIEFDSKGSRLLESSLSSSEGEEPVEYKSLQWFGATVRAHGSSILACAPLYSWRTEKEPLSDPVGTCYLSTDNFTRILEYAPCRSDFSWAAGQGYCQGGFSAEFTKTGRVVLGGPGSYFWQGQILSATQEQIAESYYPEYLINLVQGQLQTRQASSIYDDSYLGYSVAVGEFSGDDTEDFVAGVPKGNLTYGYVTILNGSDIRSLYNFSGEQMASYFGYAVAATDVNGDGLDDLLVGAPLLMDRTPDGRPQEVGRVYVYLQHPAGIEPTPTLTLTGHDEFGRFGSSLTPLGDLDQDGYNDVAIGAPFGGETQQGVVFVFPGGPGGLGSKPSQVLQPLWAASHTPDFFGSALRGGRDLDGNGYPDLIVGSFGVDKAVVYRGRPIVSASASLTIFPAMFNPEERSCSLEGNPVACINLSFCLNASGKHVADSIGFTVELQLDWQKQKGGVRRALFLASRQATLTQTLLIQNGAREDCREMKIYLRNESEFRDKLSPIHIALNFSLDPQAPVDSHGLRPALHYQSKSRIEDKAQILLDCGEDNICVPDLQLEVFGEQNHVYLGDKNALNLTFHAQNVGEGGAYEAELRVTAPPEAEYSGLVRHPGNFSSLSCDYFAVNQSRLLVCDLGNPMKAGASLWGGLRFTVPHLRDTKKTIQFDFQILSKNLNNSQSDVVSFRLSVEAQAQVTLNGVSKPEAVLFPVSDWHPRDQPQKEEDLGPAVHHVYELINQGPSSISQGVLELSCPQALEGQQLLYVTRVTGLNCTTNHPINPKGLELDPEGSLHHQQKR
Integrin alpha-5/beta-1, sequence (P08648 895-1049 limits assumed): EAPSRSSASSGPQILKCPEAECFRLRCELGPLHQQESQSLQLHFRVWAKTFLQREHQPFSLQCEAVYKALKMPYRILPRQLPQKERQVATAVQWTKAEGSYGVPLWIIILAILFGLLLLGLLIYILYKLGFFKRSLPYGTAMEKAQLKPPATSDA

CSCC[C@H](NC(=O)[C@@H](NC(=O)[C@@H](NC(=O)[C@H](CS)NC(=O)[C@H]1CCCN1C(=O)[C@H](CC(C)C)NC(=O)CNC(=O)[C@H](CCSC)NC(=O)[C@H](CO)N[C@H]1CC(=O)NCC(=O)N[C@H](CC(N)=O)C(=O)N[C@@H](Cc2c[nH]c3ccccc23)C(=O)N[C@H](Cc2c[nH]cn2)C(=O)NCC(=O)N[C@H]([C@@H](C)O)C(=O)N[C@@H](C)C(=O)N2CCC[C@@H]2C(=O)N1)C(C)C)C(C)C)C(=O)O
IC50 [1]: 0.42 µM
IC50 [2]: 560 µM

CC(C)[C@H](NC(=O)[C@@H]1CC(=O)NCC(=O)N[C@@H](CC(N)=O)C(=O)N[C@@H](Cc2c[nH]c3ccccc23)C(=O)N[C@@H](Cc2cnc[nH]2)C(=O)NCC(=O)N[C@@H]([C@@H](C)O)C(=O)N[C@@H](C)C(=O)N2CCC[C@H]2C(=O)N1)C(=O)N[C@H](C(=O)NCC(=O)N[C@@H](CCCNC(=N)N)C(=O)NCC(=O)N[C@@H](CC(=O)O)C(=O)N[C@@H](CO)C(=O)N1CCC[C@H]1C(=O)N[C@@H](C)C(=O)O)[C@@H](C)O
IC50 [3]: 290 µM

CC(C)[C@H](NC(=O)[C@H](C)NC(=O)[C@H](Cc1ccc(O)cc1)NC(=O)[C@@H](NC(=O)[C@@H]1CC(=O)NCC(=O)N[C@@H](CC(N)=O)C(=O)N[C@@H](Cc2c[nH]c3ccccc23)C(=O)N[C@@H](Cc2cnc[nH]2)C(=O)NCC(=O)N[C@@H]([C@@H](C)O)C(=O)N[C@@H](C)C(=O)N2CCC[C@H]2C(=O)N1)C(C)C)C(=O)N[C@H](C(=O)NCC(=O)N[C@@H](CCCNC(=N)N)C(=O)NCC(=O)N[C@@H](CC(=O)O)C(=O)N[C@@H](CO)C(=O)N1CCC[C@H]1C(=O)N[C@@H](C)C(N)=O)[C@@H](C)O (GNWHGTAPDVYAVTGRGDSPA-NH2; lactam N-9)
IC50 ([3]; b16-f10): 800 µM

H-VYAVTGRGDSPA-NH2
IC50 [3]: 1000 µM

H-VTGRGDSPA-OH [listing 1 of 2 here]
IC50 [3]: 1100 µM

CC(C)[C@H](NC(=O)[C@H]1CC(=O)NCC(=O)N[C@H](CC(N)=O)C(=O)N[C@@H](Cc2c[nH]c3ccccc23)C(=O)N[C@H](Cc2c[nH]cn2)C(=O)NCC(=O)N[C@H]([C@@H](C)O)C(=O)N[C@@H](C)C(=O)N2CCC[C@@H]2C(=O)N1)C(=O)N[C@H](C(=O)NCC(=O)N[C@@H](CCCN=C(N)N)C(=O)NCC(=O)N[C@@H](CC(=O)O)C(=O)N[C@@H](CO)C(=O)N1CCC[C@@H]1C(=O)N[C@@H](C)C(=O)O)[C@@H](C)O
Inhibitory ratio [4]: 78.4%
Inhibitory ratio [5]: 28.3%
Inhibitory ratio [6]: 92.1%

H-VTGRGDSPA-OH [listing 2 of 2 here]
Inhibitory ratio [4]: 20.3%
Inhibitory ratio [6]: 61.2%

CSCC[C@H](NC(=O)[C@@H](NC(=O)[C@@H](NC(=O)[C@H](CS)NC(=O)[C@@H]1CCCN1C(=O)[C@H](CC(C)C)NC(=O)CNC(=O)[C@H](CCSC)NC(=O)[C@@H](N)CO)C(C)C)C(C)C)C(=O)O
IC50 [1]: 1.2 µM
